Source: BindingDB's records for doi:10.1016/j.bmcl.2016.06.076 (Leiden University, 2016)
pIC50: −log10 of the molar value.

Target: T1, Diacylglycerol lipase-alpha (Homo sapiens, UniProt Q9Y4D2)
T1 sequence (Q9Y4D2 whole entry): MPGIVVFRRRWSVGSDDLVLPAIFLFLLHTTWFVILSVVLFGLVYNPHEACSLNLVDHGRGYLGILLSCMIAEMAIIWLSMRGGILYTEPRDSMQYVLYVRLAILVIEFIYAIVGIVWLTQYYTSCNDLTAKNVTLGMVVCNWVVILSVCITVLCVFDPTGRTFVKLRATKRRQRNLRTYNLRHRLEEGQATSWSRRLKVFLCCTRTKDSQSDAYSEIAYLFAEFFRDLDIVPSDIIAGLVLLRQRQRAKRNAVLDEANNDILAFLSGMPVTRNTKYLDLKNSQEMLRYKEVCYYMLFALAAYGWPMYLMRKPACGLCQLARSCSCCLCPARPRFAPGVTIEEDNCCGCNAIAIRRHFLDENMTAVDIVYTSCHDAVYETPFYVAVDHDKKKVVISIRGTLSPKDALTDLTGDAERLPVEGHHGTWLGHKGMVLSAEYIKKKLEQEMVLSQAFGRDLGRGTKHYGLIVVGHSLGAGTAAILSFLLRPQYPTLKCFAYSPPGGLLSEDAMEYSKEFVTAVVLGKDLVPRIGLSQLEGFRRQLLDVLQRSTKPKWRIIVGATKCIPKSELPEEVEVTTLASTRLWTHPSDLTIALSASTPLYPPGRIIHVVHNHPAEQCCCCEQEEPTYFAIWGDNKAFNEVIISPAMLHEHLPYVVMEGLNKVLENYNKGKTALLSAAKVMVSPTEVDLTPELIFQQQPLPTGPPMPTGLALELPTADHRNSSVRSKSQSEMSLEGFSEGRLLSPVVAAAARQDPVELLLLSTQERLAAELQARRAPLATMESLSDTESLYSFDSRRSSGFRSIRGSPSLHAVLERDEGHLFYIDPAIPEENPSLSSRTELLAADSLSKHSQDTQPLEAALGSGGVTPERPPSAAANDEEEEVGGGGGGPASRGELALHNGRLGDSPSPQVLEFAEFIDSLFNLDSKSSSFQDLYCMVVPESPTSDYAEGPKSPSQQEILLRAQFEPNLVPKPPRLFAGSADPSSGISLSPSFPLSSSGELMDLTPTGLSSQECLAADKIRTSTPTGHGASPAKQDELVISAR
Assay: Inhibition of human DAGLalpha expressed in HEK293T cell membrane fractions using PNP butyrate as substrate preincubated for 20 mins followed by substrate addition by colorimetric surrogate substrate assay

O=C(CCCCCc1ccccc1)c1nc2ncccc2o1 [1-(oxazolo[4,5-b]pyridin-2-yl)-6-phenylhexan-1-one]
pIC50: 7.40
